The test deals with human Nav1.8 (Homo sapiens (Human), UniProt Q9Y5Y9). Kind of test: Nav1.8 Qube® Assay (automated 384-well patch-clamp). It is filed as cell-based. The conditions noted are these: human Nav1.8 channels stably expressed in HEK 293 cells. An excerpt:
Qube® Assay Experimental Procedure
Background: The patch-clamp technique gives a direct electrical read-out from membranes.

Chain of human Nav1.8 (Q9Y5Y9 whole entry): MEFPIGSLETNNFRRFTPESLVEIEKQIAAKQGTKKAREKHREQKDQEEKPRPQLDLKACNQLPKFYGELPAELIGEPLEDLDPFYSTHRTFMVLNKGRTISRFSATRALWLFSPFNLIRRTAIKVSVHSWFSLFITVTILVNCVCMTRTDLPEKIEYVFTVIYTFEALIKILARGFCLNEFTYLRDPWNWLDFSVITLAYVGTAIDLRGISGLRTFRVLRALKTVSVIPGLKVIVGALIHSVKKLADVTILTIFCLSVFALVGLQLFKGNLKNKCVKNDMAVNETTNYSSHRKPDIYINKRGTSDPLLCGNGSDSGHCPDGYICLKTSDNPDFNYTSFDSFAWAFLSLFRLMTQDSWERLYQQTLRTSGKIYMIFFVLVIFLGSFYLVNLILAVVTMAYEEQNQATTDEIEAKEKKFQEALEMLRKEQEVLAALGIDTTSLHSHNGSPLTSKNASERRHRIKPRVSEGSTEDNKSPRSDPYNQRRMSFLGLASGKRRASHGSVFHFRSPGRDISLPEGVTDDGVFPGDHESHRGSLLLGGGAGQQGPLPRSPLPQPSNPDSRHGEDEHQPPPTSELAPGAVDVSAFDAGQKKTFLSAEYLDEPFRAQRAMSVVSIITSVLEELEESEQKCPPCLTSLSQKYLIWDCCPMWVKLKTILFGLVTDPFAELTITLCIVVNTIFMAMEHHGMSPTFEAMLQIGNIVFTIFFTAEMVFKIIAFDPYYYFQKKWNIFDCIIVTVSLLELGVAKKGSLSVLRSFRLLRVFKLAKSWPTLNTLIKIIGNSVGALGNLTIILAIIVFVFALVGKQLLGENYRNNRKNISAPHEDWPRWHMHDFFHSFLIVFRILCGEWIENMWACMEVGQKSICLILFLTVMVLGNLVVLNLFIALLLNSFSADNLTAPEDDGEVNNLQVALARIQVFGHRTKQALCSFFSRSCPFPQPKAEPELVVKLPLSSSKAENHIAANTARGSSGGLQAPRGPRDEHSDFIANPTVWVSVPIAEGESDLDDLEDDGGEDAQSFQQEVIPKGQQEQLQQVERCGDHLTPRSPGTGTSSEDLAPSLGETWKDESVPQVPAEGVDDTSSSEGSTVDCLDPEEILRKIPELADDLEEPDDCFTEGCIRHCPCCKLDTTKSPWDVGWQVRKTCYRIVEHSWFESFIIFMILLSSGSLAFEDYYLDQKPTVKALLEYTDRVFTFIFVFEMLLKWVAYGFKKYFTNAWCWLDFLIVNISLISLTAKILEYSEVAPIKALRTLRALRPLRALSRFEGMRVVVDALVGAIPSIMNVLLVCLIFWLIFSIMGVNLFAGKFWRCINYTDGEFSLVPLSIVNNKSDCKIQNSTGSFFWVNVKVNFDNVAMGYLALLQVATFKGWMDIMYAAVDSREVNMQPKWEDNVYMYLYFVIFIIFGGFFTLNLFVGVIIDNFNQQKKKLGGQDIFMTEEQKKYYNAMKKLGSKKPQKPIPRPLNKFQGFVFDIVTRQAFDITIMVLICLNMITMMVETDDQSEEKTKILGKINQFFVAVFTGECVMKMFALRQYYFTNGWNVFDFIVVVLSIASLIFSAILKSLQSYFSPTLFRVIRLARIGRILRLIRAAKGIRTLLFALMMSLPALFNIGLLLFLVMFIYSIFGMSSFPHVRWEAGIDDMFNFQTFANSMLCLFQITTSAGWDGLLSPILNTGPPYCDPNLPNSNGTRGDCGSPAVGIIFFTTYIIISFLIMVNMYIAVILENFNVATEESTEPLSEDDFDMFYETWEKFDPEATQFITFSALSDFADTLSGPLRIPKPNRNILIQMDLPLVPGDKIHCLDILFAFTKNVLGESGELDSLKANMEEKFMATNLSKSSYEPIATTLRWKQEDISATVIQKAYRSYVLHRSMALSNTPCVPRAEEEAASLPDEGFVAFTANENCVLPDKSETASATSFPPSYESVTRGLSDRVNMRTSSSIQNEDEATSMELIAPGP

Molecule `O=C1NC[C@@H](C(=O)NC(c2ccc(OC(F)(F)F)c(Cl)c2)c2cnn(C(F)(F)F)c2)O1` (single isomer, unassigned) [Example 53B, (S)-N-((R or S)-(3-chloro-4-(trifluoro-methoxy)phenyl)(1-(trifluoromethyl)-1H-pyrazol-4-yl)methyl)-2-oxooxazolidine-5-carboxamide] yielded an IC50 of 1.2 nM.
In turn, `O=C1NC[C@@H](C(=O)NC(c2ccc(Cl)cc2)c2ccc(Cl)c(C(F)(F)F)c2)O1` (single isomer, unassigned) [Example 35A, (S)-N-((R or S)-(4-chloro-3-(trifluoromethyl)phenyl)(4-chlorophenyl)methyl)-2-oxooxazolidine-5-carboxamide] registered an IC50 of 0.4 nM.
As to `O=C1NC[C@@H](C(=O)NC(c2ccccc2)c2ccc(Cl)c(Cl)c2)O1` (single isomer, unassigned) [Example 25A, (S)-N-((R or S)-(3,4-dichlorophenyl) (phenyl)methyl)-2-oxooxazolidine-5-carboxamide], the IC50 is 2.7 nM.
In turn, `O=C1NC[C@@H](C(=O)NC(c2ccc(Cl)cc2)c2ccc(F)c(C(F)F)n2)O1` (single isomer, unassigned) [Example 16B] came in with an IC50 of 3.3 nM.
Next, `COc1ncccc1C(NC(=O)[C@@H]1CNC(=O)O1)c1ccc(F)c(Cl)c1` (single isomer, unassigned) [Example 58A, (S)-N-((R or S)-(3-chloro-4-fluorophenyl)(2-methoxypyridin-3-yl)methyl)-2-oxooxazolidine-5-carboxamide]: 12 nM.
For `O=C1NC[C@@H](C(=O)NC(c2ccc(Cl)cc2)C23C4C5C6C4C2C6C53)O1` (single isomer, unassigned) [Example 56A, (S)—N—((R or S)-(4-chlorophenyl)(cuban-1-yl)methyl)-2-oxooxazolidine-5-carboxamide], the midpoint of inhibition, the IC50, lay at 229 nM.
As for `Cn1nc(C(F)(F)F)cc1C(NC(=O)[C@@H]1CNC(=O)O1)c1ccc(F)c(Cl)c1` (single isomer, unassigned) [Example 61B, (S)-N-((R or S)-(3-chloro-4-fluorophenyl)(1-methyl-3-(trifluoromethyl)-1H-pyrazol-5-yl)methyl)-2-oxooxazolidine-5-carboxamide], the concentration for half-maximal inhibition (IC50) came to 231 nM.
In turn, `O=C1NC[C@@H](C(=O)NC(c2ccc(Cl)cc2)c2ccc3ccccc3c2)O1` (stereo partly drawn) [Example 31, (5S)-N-((4-chlorophenyl) (naphthalen-2-yl)methyl)-2-oxooxazolidine-5-carboxamide] had an IC50 of 3.9 nM.
Next, `O=C1NC[C@@H](C(=O)NC(c2ccc(Cl)cc2)c2ccc(F)c(Cl)c2)O1` (single isomer, unassigned) [Example 19B, (S)—N—((R or S)-(3-chloro-4-fluorophenyl)(4-chlorophenyl)methyl)-2-oxooxazolidine-5-carboxamide]: 2.4 nM; `O=C1NC[C@@H](C(=O)NC(c2cncc(Cl)c2)c2ccc(F)c(Cl)c2)O1` (single isomer, unassigned) [Example 13A, (S)-N-((R or S)-(3-chloro-4-fluorophenyl)(5-chloropyridin-3-yl)methyl)-2-oxooxazolidine-5-carboxamide]: 573 nM.
In the case of `COc1ccc(C(NC(=O)[C@@H]2CNC(=O)O2)c2ccc(Cl)cc2)cn1` (single isomer, unassigned) [Example 22A, (S)-N-((R or S)-(4-chlorophenyl)(6-methoxypyridin-3-yl)methyl)-2-oxooxazolidine-5-carboxamide], it took 130 nM to reach half-maximal inhibition (IC50).
In turn, `CS(=O)(=O)c1cccc(C(NC(=O)[C@@H]2CNC(=O)O2)c2ccc(Cl)cc2)c1` (stereo partly drawn) [Example 27, (5S)-N-((4-chlorophenyl)(3-(methylsulfonyl)phenyl)methyl)-2-oxooxazolidine-5-carboxamide] had an IC50 of 705 nM.
In turn, `O=C1NC[C@@H](C(=O)NC(c2ccc(Cl)cc2)C2CCC(F)(F)C2)O1` (single isomer, unassigned) [Example 57C, (S)-N-((R or S)-(4-chlorophenyl)((R or S)-3,3-difluorocyclopentyl)methyl)-2-oxooxazolidine-5-carboxamide] registered an IC50 of 903 nM.
Next, `O=C1NC[C@@H](C(=O)NC(c2ccc(F)c(Cl)c2)c2cccc(C(F)(F)F)n2)O1` (single isomer, unassigned) [Example 49B, (S)-N-((R or S)-(3-chloro-4-fluorophenyl)(6-(trifluoromethyl)pyridin-2-yl)methyl)-2-oxooxazolidine-5-carboxamide]: 54 nM.
`O=C1NC[C@@H](C(=O)NC(COc2ccc(F)c(Cl)c2)c2ccc(F)c(Cl)c2)O1` (single isomer, unassigned) [Example 8A, (S)—N—((R or S)-2-(3-chloro-4-fluorophenoxy)-1-(3-chloro-4-fluorophenyl)ethyl)-2-oxooxazolidine-5-carboxamide] had an IC50 of 40 nM.
`O=C1NC[C@@H](C(=O)NC(c2ccc(Cl)cc2)c2c[nH]c(C(F)(F)F)n2)O1` (single isomer, unassigned) [Example 17A, (S)-N-((R or S)-(4-chlorophenyl)(2-(trifluoromethyl)-1H-imidazol-4-yl)methyl)-2-oxooxazolidine-5-carboxamide] returned a 50% inhibitory concentration (IC50) of 593 nM.

What is called IC50 is the concentration needed to halve the response being measured.
